Assay results reported in patent US20260317309A1, “N-HETEROCYLIC GPCR RECEPTOR AGONISTS, PHARMACEUTICAL COMPOSITIONS COMPRISING THE SAME, AND METHODS FOR THEIR USE” (Carmot Therapeutics, Inc., priority 2022, published 2026).

biological target: T1, human GLP-1 receptor (Homo sapiens, UniProt P43220); assay: GLP-1R cAMP assay (cAMP accumulation in CHO cells stably overexpressing the human GLP-1 receptor, HitHunter kit); assay type: cell-based; details: CHO cells stably overexpressing human GLP-1R, 30 min, 20-point dose response in triplicate
T1 construct: expressed in transfected cells
Method: CAMP accumulation was measured in Chinese hamster ovary (CHO) cells (10,000 cells/well) stably overexpressing the human GLP-1 receptor using the HitHunter CAMP Assay for Small Molecules Kit (Eurofins). Briefly, cells were grown in Ham's F12 Nutrient Mix with 10% FBS, and lifted with Cell Dissociation Buffer, Enzyme free, PBS based (ThermoFisher). Cells were pelleted, and resuspended in Hank's buffered saline solution with 10 mM HEPES, and 625 μM 3-isobutyl-1-methylxanthine. The anti-cAMP antibody reagent was then added to cells at a 1:2 ratio and 5 μL of mixture was seeded in 384-well small volume white assay plates, at 10,000 cells/well. Cells were then treated with 50 nL compound using an ECHO 550 acoustic dispenser (Labcyte) in a 20-point dose response format in triplicate for 30 min. Cells were then lysed, and detection reagents added according to the manufacturer's protocol. After overnight incubation, luminescence was measured using a Perkin Elmer Envision plate reader. Dose response curves were analyzed using GraphPad Prism 9.0.
In the Table, EC50 values are designated as follows: • A: 0 nM<EC50<0.1 nM; • B: 0.1 nM≤EC50<1.0 nM; • C: 1.0 nM≤EC50<10.0 nM; • D: 10.0 nM≤EC50<100 nM; • E: 100 nM≤EC50<500 nM; and • F: ≥500 nM

T1 sequence (P43220 24-463): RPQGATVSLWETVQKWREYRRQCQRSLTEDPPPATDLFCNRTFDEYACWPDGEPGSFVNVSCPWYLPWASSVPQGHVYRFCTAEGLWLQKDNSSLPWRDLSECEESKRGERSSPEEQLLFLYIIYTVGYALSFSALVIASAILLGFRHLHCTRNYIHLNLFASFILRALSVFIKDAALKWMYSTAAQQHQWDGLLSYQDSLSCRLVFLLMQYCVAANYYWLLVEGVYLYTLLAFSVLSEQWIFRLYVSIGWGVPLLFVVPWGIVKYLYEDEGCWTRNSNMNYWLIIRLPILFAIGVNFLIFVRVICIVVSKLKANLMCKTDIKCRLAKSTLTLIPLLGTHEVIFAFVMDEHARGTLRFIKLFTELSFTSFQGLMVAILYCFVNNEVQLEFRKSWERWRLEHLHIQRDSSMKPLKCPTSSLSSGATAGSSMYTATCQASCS

EC50, ≥ 500 nM:
CC(c1nc2ccc(C(=O)O)cc2n1C[C@@H](O)CCO)N1CC[C@H](Oc2ccnc(COc3ccc(F)cc3F)n2)C[C@@H]1C (mixture of isomers) [Compound 569, 2-{1-[(2S,4S)-4-({2-[(2,4-difluorophenoxy)methyl]pyrimidin-4-yl}oxy)-2-methylpiperidin-1-yl]ethyl}-1-[(2S)-2,4-dihydroxybutyl]-1H-1,3-benzodiazole-6-carboxylic acid]

EC50, 10 to 100 nM:
N#Cc1ccc(OCc2nccc(OC3CCC4(CC3)CC4c3nc4ccc(C(=O)O)cc4n3C[C@@H]3CCO3)n2)c(F)c1 (stereo partly drawn) [Compound 571, 2-(6-((2-((4-Cyano-2-fluorophenoxy)methyl)pyrimidin-4-yl)oxy)spiro[2.5]octan-1-yl)-1-(((S)-oxetan-2-yl)methyl)-1H-benzo[d]imidazole-6-carboxylic acid]

EC50, 1 to 10 nM:
N#CC[C@H]1C[C@@H](Oc2ccnc(COc3ccc(F)cc3Cl)n2)CCN1Cc1nc2ccc(C(=O)O)cc2n1C[C@@H]1CCO1 [Compound 557, 2-{[(2S,4S)-4-({2-[(2-Chloro-4-fluorophenoxy)methyl]pyrimidin-4-yl}oxy)-2-(cyanomethyl)piperidin-1-yl]methyl}-1-{[(2S)-oxetan-2-yl]methyl}-1H-1,3-benzodiazole-6-carboxylic acid]
CC(c1nc2ccc(C(=O)O)cc2n1C[C@@H]1CCO1)N1CCC(Oc2ccnc(COc3ccc(F)cc3F)n2)CC1 (stereo partly drawn) [Compound 565, 2-(1-(4-((2-((2,4-Difluorophenoxy)methyl)pyrimidin-4-yl)oxy)piperidin-1-yl)ethyl)-1-(((S)-oxetan-2-yl)methyl)-1H-benzo[d]imidazole-6-carboxylic acid]

EC50, < 0.1 nM:
C[C@H]1C[C@@H](Oc2ccnc(COc3ncc(Cl)cc3F)n2)CCN1Cc1nc2ccc(C(=O)O)cc2n1C[C@@H]1CCO1 [Compound 554, 2-(((2S,4S)-4-((2-(((5-Chloro-3-fluoropyridin-2-yl)oxy)methyl)pyrimidin-4-yl)oxy)-2-methylpiperidin-1-yl)methyl)-1-(((S)-oxetan-2-yl)methyl)-1H-benzo[d]imidazole-6-carboxylic acid]
O=C(O)c1ccc2nc(CN3CC[C@H](Oc4ccnc(COc5ccc(Cl)cc5F)c4)C[C@@H]3CF)n(C[C@@H]3CCO3)c2c1 [Compound 555, 2-(((2R,4S)-4-((2-((4-Chloro-2-fluorophenoxy)methyl)pyridin-4-yl)oxy)-2-(fluoromethyl)piperidin-1-yl)methyl)-1-(((S)-oxetan-2-yl)methyl)-1H-benzo[d]imidazole-6-carboxylic acid]

EC50, 0.1 to 1 nM:
CC(c1nc2ccc(C(=O)O)cc2n1C[C@@H]1CCO1)N1CC[C@H](Oc2ccnc(COc3ccc(F)cc3F)n2)C[C@@H]1C (mixture of isomers) [Compound 568, 2-{1-[(2S,4S)-4-({2-[(2,4-difluorophenoxy)methyl]pyrimidin-4-yl}oxy)-2-methylpiperidin-1-yl]ethyl}-1-{[(2S)-oxetan-2-yl]methyl}-1H-1,3-benzodiazole-6-carboxylic acid]
N#Cc1ccc(OCc2nccc(O[C@H]3CCN(Cc4nc5ccc(C(=O)O)cc5n4C[C@@H]4CCO4)C[C@H]3F)n2)c(F)c1 [Compound 552, 2-{[(3R,4S)-4-({2-[(4-cyano-2-fluorophenoxy)methyl]pyrimidin-4-yl}oxy)-3-fluoropiperidin-1-yl]methyl}-1-{[(2S)-oxetan-2-yl]methyl}-1H-1,3-benzodiazole-6-carboxylic acid]
N#Cc1ccc(OCc2nccc(O[C@H]3CCN(Cc4nc5ccc(C(=O)O)cc5n4C[C@@H]4CCO4)C[C@@H]3F)n2)c(F)c1 [Compound 553, 2-{[(3S,4S)-4-({2-[(4-cyano-2-fluorophenoxy)methyl]pyrimidin-4-yl}oxy)-3-fluoropiperidin-1-yl]methyl}-1-{[(2S)-oxetan-2-yl]methyl}-1H-1,3-benzodiazole-6-carboxylic acid]
C[C@H]1C[C@@H](Oc2ccnc(COc3ccc(F)cc3C#N)n2)CCN1Cc1nc2ncc(C(=O)O)cc2n1C[C@@H]1CCO1 [Compound 556, 2-(((2S,4S)-4-((2-((2-Cyano-4-fluorophenoxy)methyl)pyrimidin-4-yl)oxy)-2-methylpiperidin-1-yl)methyl)-1-(((S)-oxetan-2-yl)methyl)-1H-imidazo[4,5-b]pyridine-6-carboxylic acid]
C[C@H]1C[C@@H](Oc2ccnc(COc3ccc(F)cc3C#N)n2)CCN1Cc1nc2ccc(C(=O)O)cc2n1C[C@H]1CCOC1 [Compound 558, 2-{[(2S,4S)-4-({2-[(2-cyano-4-fluorophenoxy)methyl]pyrimidin-4-yl}oxy)-2-methylpiperidin-1-yl]methyl}-1-{[(3R)-oxolan-3-yl]methyl}-1H-1,3-benzodiazole-6-carboxylic acid]
C[C@H]1C[C@@H](Oc2ccnc(COc3ccc(F)cc3F)n2)CCN1Cc1nc2ccc(C(=O)NO)cc2n1C[C@@H]1CCO1 [Compound 559, 2-(((2S,4S)-4-((2-((2,4-Difluorophenoxy)methyl)pyrimidin-4-yl)oxy)-2-methylpiperidin-1-yl)methyl)-N-hydroxy-1-(((S)-oxetan-2-yl)methyl)-1H-benzo[d]imidazole-6-carboxamide]
C[C@H]1C[C@@H](Oc2ccnc(COc3ccc(F)cc3C#N)n2)CCN1Cc1nc2ccc(C(=O)NO)cc2n1C[C@@H]1CCO1 [Compound 560, 2-{[(2S,4S)-4-({2-[(2-Cyano-4-fluorophenoxy)methyl]pyrimidin-4-yl}oxy)-2-methylpiperidin-1-yl]methyl}-N-hydroxy-1-{[(2S)-oxetan-2-yl]methyl}-1H-1,3-benzodiazole-6-carboxamide]
C[C@H]1C[C@@H](Oc2ccnc(COc3ccc(F)cc3C#N)n2)CCN1Cc1nc2ccc(C(=O)O)cc2n1C[C@H]1CCO1 [Compound 561, 2-{[(2S,4S)-4-({2-[(2-cyano-4-fluorophenoxy)methyl]pyrimidin-4-yl}oxy)-2-methylpiperidin-1-yl]methyl}-1-{[(2R)-oxetan-2-yl]methyl}-1H-1,3-benzodiazole-6-carboxylic acid]
C[C@H]1C[C@@H](Oc2ccnc(COc3ccc(F)cc3F)n2)CCN1Cc1nc2ccc(C(=O)O)cc2n1C[C@H]1CCO1 [Compound 562, 2-{[(2S,4S)-4-({2-[(2,4-difluorophenoxy)methyl]pyrimi-din-4-yl}oxy)-2-methylpiperi-din-1-yl]methyl}-1-{[(2R)-oxe-tan-2-yl]methyl}-1H-1,3-benzo-diazole-6-carboxylic acid]
C[C@H]1C[C@@H](Oc2ccnc(COc3ccc(F)cc3F)n2)CCN1Cc1nc2ccc(C(=O)NS(C)(=O)=O)cc2n1C[C@@H]1CCO1 [Compound 563, 2-(((2S,4S)-4-((2-((2,4-Difluorophenoxy)methyl)pyrimidin-4-yl)oxy)-2-methylpiperidin-1-yl)methyl)-N-(methylsulfonyl)-1-(((S)-oxetan-2-yl)methyl)-1H-benzo[d]imidazole-6-carboxamide]
C[C@H]1C[C@@H](Oc2ccnc(COc3ccc(F)cc3F)n2)CCN1Cc1nc2ccc(C(=O)NS(=O)(=O)C3CC3)cc2n1C[C@@H]1CCO1 [Compound 564, N-(Cyclopropanesulfonyl)-2-{[(2S,4S)-4-({2-[(2,4-difluorophenoxy)methyl]pyrimidin-4-yl}oxy)-2-methylpiperidin-1-yl]methyl}-1-{[(2S)-oxetan-2-yl]methyl}-1H-1,3-benzodiazole-6-carboxamide]
C[C@H]1C[C@@H](Oc2ccnc(COc3ncc(F)cc3F)n2)CCN1Cc1nc2ccc(C(=O)O)cc2n1C[C@@H]1CCO1 [Compound 566, 2-{[(2S,4S)-4-[(2-{[(3,5-Difluoropyridin-2-yl)oxy]methyl}pyrimidin-4-yl)oxy]-2-methylpiperidin-1-yl]methyl}-1-{[(2S)-oxetan-2-yl]methyl}-1H-1,3-benzodiazole-6-carboxylic acid]
C[C@H]1C[C@@H](Oc2ccnc(COc3ccc(C#N)cn3)n2)CCN1Cc1nc2ccc(C(=O)O)cc2n1C[C@@H]1CCO1 [Compound 567, 2-{[(2S,4S)-4-[(2-{[(5-Cyanopyridin-2-yl)oxy]methyl}pyrimidin-4-yl)oxy]-2-methylpiperidin-1-yl]methyl}-1-{[(2S)-oxetan-2-yl]methyl}-1H-1,3-benzodiazole-6-carboxylic acid]
C[C@H]1C[C@@H](Oc2ccnc(COc3ccc(F)cc3F)n2)CCN1Cc1nc2ccc(C(=O)O)cc2n1CC12CC(CO1)C2 [Compound 570, 2-{[(2S,4S)-4-({2-[(2,4-Difluorophenoxy)methyl]pyrimidin-4-yl}oxy)-2-methylpiperidin-1-yl]methyl}-1-({2-oxabicyclo[2.1.1]hexan-1-yl}methyl)-1H-1,3-benzodiazole-6-carboxylic acid]
C[C@H]1C[C@@H](Oc2ccnc(COc3ccc(F)cc3F)n2)CCN1Cc1nc2cc(F)c(C(=O)O)cc2n1C[C@@H]1CCO1 [Compound 572, 2-{[(2S,4S)-4-({2-[(2,4-di-fluorophenoxy)methyl]pyrimidin-4-yl}oxy)-2-methylpiperidin-1-yl]methyl}-5-fluoro-1-{[(2S)-oxetan-2-yl]methyl}-1H-1,3-benzodiazole-6-carboxylic acid]
